Assay results as given in paper PMC11042424, “Development of a First-in-Class RIPK1 Degrader to Enhance Antitumor Immunity” (Research Square, 2024).

How the values were obtained:
RIPK1 and VHL = molecular target: T1, RIPK1 and VHL (Homo sapiens, UniProt P40337+Q13546); assay: NanoBRET live-cell ternary complex assay; type: cell-based; details: HEK293 cells co-transfected with nLuc-RIPK1 and VHL-Halo
T1 construct: Addgene backbone 87075 (RIPK1 vector, made in house) N273A; host or cells: HEK293T
Procedure: (§1) Figure 2 LD4172, a RIPK1 PROTAC, induces potent and highly specific degradation of RIPK1 in a panel of cell lines. A, Chemical structures of RIPK1 PROTAC, LD4172, and its negative control, LD4172-NC. […] B, Quantification of RIPK1 levels in both Jurkat and B16F10 cells treated with LD4172 at indicated concentrations for 24 h, followed by Western blotting. C, DC50 and Dmax of LD4172 in various human and mouse cell lines. DC50, the drug concentration causing 50% protein degradation; Dmax, the maximum level of protein degradation. D, RIPK1 degradation kinetics induced by LD4172 treatment (1 μM) and resynthesis kinetics upon washout of LD4172 in both Jurkat and B16F10 cells. […] G, Time-resolved fluorescence resonance energy transfer (TR-FRET) based biochemical binding assay for RIPK1. […] In total, ~10,000 proteins were quantified in the proteomics experiment. […]
Human RIPK1 cDNA insert was cloned into pLenti6.2-ccdB-nLuc plasmid (87075, Addgene, a kind gift from Taipale Lab) using gateway cloning kit (11791020, Thermo) and standard protocol to obtain pLenti6.2-RIPK1-nLuc fusion vector. […] Immediately before reading the plate, prepare 4x concentrated NanoGlo nLuc substrate (N157, Promega) was prepared by diluting the stock into Opti-MEM 1,000-fold, and the NanoGlo substrate was then added into each well to bring the final concentration to 1x. […]

[1] = Stability in human liver S9 fractions; type: in vitro ADME
GST-tagged human RIPK1 = molecular target: T2, GST-tagged human RIPK1 (Homo sapiens, UniProt Q13546); assay: TR-FRET biochemical binding assay for RIPK1
T2 construct: purchased SignalChem R07–11G-10
T2 sequence (Q13546 1-327 limits assumed): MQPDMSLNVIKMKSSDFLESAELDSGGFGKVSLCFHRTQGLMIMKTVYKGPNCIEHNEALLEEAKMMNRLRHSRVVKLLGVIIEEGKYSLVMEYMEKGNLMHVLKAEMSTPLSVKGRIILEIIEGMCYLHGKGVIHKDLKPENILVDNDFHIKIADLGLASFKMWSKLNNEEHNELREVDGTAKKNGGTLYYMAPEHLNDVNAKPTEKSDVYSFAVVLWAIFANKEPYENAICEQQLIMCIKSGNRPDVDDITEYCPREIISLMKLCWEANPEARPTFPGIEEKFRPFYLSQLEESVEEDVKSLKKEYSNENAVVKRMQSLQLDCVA
Procedure: as §1
A time-resolved fluorescence resonance energy transfer (TR-FRET) assay was performed to evaluate the binding of the indicated compounds and RIPK1 by competition with a BODIPY-FL labeled RIPK1 tracer (Supplementary Information, T2I-488). […] The assay mixtures were incubated at room temperature in the dark for 120 min, and the signals were collected using a BioTek Synergy H1 microplate reader to measure the fluorescence emission ratio (I520 nm/I490 nm) of each well using a 340-nm excitation filter, a 100-μs delay, and a 200-μs integration time. […]

Structure (SMILES): Cc1ncsc1-c1ccc([C@H](C)NC(=O)[C@@H]2C[C@@H](O)CN2C(=O)[C@@H](NC(=O)CCCCCCCCCCC(=O)NCCCn2cc(-c3ccc4c(c3)CCN4C(=O)Cc3cccc(OC(F)(F)F)c3)c3c(N)ncnc32)C(C)(C)C)cc1 [LD4172]
- ternary complex formation, NanoBRET between RIPK1 and VHL (RIPK1 and VHL): induced NanoBRET between RIPK1 and VHL
- half-life [1]: 21.1 min
- intrinsic clearance (CLint) [1]: 32.8 μL·min^− 1·mg^− 1 protein
- IC50 (GST-tagged human RIPK1; 2 hours incubation, n=3, read-out: IC50, Fig. 2G): 9.6 nM
- Ki (GST-tagged human RIPK1; recombinant human RIPK1 protein): 4.8 nM
